# According to patent publication US20260297060A1, “COMPOUNDS FOR THE DEGRADATION OF MUTANT BRAF” (C4 THERAPEUTICS, INC., priority 2023, published 2026):
# System: A375 human melanoma xenografts
# Assay: In vivo therapeutic efficacy in A375 human melanoma xenografts (tumor volume, T/C, TGI), Example 14
# Set-up: species or system human tumor in female BALB/c nude mice
# Details: for Tumor volume: mean ± SEM; for T/C / TGI: PG-D21
# Procedure: Agents were tested in the A375 human melanoma xenografts. Compound 26 and Compound 141 were administered to BALB/c nude mice bearing A375 tumors from PG-DO and dosed via PO twice a day (BID) or third a day (TIP) or dosed P daily (QD) from PG-D. Dabrafenib was administered to BALB/c nude mice bearing A375 tumors from PG-D1 and dosed via P daily (QD). Compound 26 was dosed at 1.5 mg/kg (QD), 2 mg/kg (TID), 3 mg/kg (BID), 6 mg/kg (QD) and 10 mg/kg (BID) for 21 days. Compound 141 was dosed at 0.75 mg/kg (BID), 1 mg/kg (TID), 1.5 mg/kg (BID), 3 mg/kg (QD) and 5 mg/kg (BID) for 21 days. Dabrafenib was dosed at 100 mg/kg for 21 days. This study was non-GLP.
# One hundred and thirty-eight female BALB/c nude Mus Musculus mice procured from Shanghai Lingchang Biological Science and Technology Co., LTD between the ages of six to eight weeks and with body weight between eighteen and twenty-two grams were used for the study. A spare mouse was also procured.
# The A375 tumor cells were maintained in vitro in DMEM medium supplemented with 10% fetal bovine serum and 1% Penicillin-Streptomycin at 37° C. in an atmosphere of 5% CO2 in air. The tumor cells were routinely sub-cultured twice weekly. The cells growing in an exponential growth phase were harvested and counted for tumor inoculation.
# Each mouse was inoculated subcutaneously at the right flank with A375 cells (5×10^6) in 0.2 mL of PBS supplemented with Matrigel (PBS: Matrigel=1:1) for tumor development. Animals were grouped for efficacy study on day 15 after tumor inoculation when the average tumor volume reached 220 mm^3. The test articles administration and the animal numbers in each group are shown in the above experimental Table 75.
# At the time of routine monitoring, the animals were checked daily for any effects of tumor growth and treatments on normal behavior such as mobility, food and water consumption (by looking only), body weight gain/loss (body weights were measured twice weekly), eye/hair matting and any other abnormal effect as stated in the protocol. Death and observed clinical signs were recorded on the basis of the numbers of animals within each subset.
# Prior to the onset of drug treatment, mice were measured for tumor size in two dimensions using a caliper, and the tumor volume (mm^3) was calculated using formula V=0.5 a×b^2 where a and b are the long and short diameters of the tumor in mm, respectively. Mice were randomized into different treatment groups based on the tumor volume.
# The major endpoint was to see if the tumor growth could be delayed or mice could be cured. The tumor size was then used for calculations of T/C value. The T/C value (in percent) is an indication of antitumor effectiveness; T and C are the mean volumes of the treated and control groups, respectively on specified day.
# TGI was calculated for each group using the formula: TGI (%)=[1−(Ti−T0)/(Ci−C0)]×100; Ti is the average tumor volume of a treatment group on a given day, T0 is the average tumor volume of the treatment group on the day of treatment start, Ci is the average tumor volume of the vehicle control group on the same day with Ti, and C0 is the average tumor volume of the vehicle group on the day of treatment start.
# A one-way ANOVA followed by Dunnett's multiple comparison test was performed to compare tumor volume among vehicle group (Group 1) and treatment groups (Group 2-Group 12). All data were analyzed using GraphPad Prism, ns indicates p>0.05, * indicates p<0.05, ** indicates p<0.01, *** indicates p<0.001 and **** indicates p<0.0001.
# Tumor growth inhibition of Compound 26, Compound 141 and dabrafenib in the treatment of female BALB/c nude mice bearing A375 xenografts was calculated based on tumor volume measured on […]. TGI and T/C were calculated respectively and the data are detailed in Table 82.
compound,measurement,setting,value
"CCN(C)S(=O)(=O)Nc1ccc(F)c(Oc2ccc3ncn(C4CC5(CCN(C6CC7(C6)CN(c6cc8c(cc6F)c(N6CCC(=O)NC6=O)nn8C)C7)CC5)C4)c(=O)c3c2)c1C#N (centres unmarked) [Compound 141, 6-[2-cyano-3-[[ethyl(methyl)sulfamoyl]amino]-6-fluoro-phenoxy]-3-[7-[2-[3-(2,4-dioxohexahydropyrimidin-1-yl)-5-fluoro-1-methyl-indazol-6-yl]-2-azaspiro[3.3]heptan-6-yl]-7-azaspiro[3.5]nonan-2-yl]-4-oxo-quinazoline]",Tumor volume,"0.75 mg/kg p.o. BID x 21 days, day 0",220 ± 16 mm^3
same,Tumor volume,"0.75 mg/kg p.o. BID x 21 days, day 4",279 ± 20 mm^3
same,Tumor volume,"0.75 mg/kg p.o. BID x 21 days, day 7",299 ± 25 mm^3
same,Tumor volume,"0.75 mg/kg p.o. BID x 21 days, day 11",305 ± 27 mm^3
same,Tumor volume,"0.75 mg/kg p.o. BID x 21 days, day 14",333 ± 29 mm^3
same,Tumor volume,"0.75 mg/kg p.o. BID x 21 days, day 18",465 ± 48 mm^3
same,Tumor volume,"0.75 mg/kg p.o. BID x 21 days, day 21",634 ± 67 mm^3
same,Tumor volume,"0.75 mg/kg p.o. BID x 21 days, day 25 (dosing-free regrowth)",1230 ± 98 mm^3
same,Tumor volume,"0.75 mg/kg p.o. BID x 21 days, day 28 (dosing-free regrowth)",1536 ± 103 mm^3
same,Tumor volume,"0.75 mg/kg p.o. BID x 21 days, day 32 (dosing-free regrowth)",1821 ± 140 mm^3
same,Tumor volume,"0.75 mg/kg p.o. BID x 21 days, day 35 (dosing-free regrowth)",2230 ± 178 mm^3
same,Tumor volume,"0.75 mg/kg p.o. BID x 21 days, day 39 (dosing-free regrowth)",2413 ± 86 mm^3
same,Tumor volume,"0.75 mg/kg p.o. BID x 21 days, day 42 (dosing-free regrowth)",2786 ± 127 mm^3
same,Tumor volume,"0.75 mg/kg p.o. BID x 21 days, day 46 (dosing-free regrowth)",3213 ± 101 mm^3
same,Tumor Size on PG-D21 (Mean ± SEM),0.75 mg/kg p.o. BID × 21 days,634 ± 67 mm^3
same,T/C,0.75 mg/kg p.o. BID × 21 days,33.7%
same,TGI,0.75 mg/kg p.o. BID × 21 days,75.1%
same,Tumor volume,"1 mg/kg p.o. TID x 21 days, day 0",220 ± 16 mm^3
same,Tumor volume,"1 mg/kg p.o. TID x 21 days, day 4",199 ± 14 mm^3
same,Tumor volume,"1 mg/kg p.o. TID x 21 days, day 7",174 ± 12 mm^3
same,Tumor volume,"1 mg/kg p.o. TID x 21 days, day 11",131 ± 11 mm^3
same,Tumor volume,"1 mg/kg p.o. TID x 21 days, day 14",99 ± 11 mm^3
same,Tumor volume,"1 mg/kg p.o. TID x 21 days, day 18",117 ± 18 mm^3
same,Tumor volume,"1 mg/kg p.o. TID x 21 days, day 21",138 ± 22 mm^3
same,Tumor volume,"1 mg/kg p.o. TID x 21 days, day 25 (dosing-free regrowth)",303 ± 94 mm^3
same,Tumor volume,"1 mg/kg p.o. TID x 21 days, day 28 (dosing-free regrowth)",492 ± 132 mm^3
same,Tumor volume,"1 mg/kg p.o. TID x 21 days, day 32 (dosing-free regrowth)",718 ± 197 mm^3
same,Tumor volume,"1 mg/kg p.o. TID x 21 days, day 35 (dosing-free regrowth)",933 ± 232 mm^3
same,Tumor volume,"1 mg/kg p.o. TID x 21 days, day 39 (dosing-free regrowth)",1233 ± 240 mm^3
same,Tumor volume,"1 mg/kg p.o. TID x 21 days, day 42 (dosing-free regrowth)",1591 ± 302 mm^3
same,Tumor volume,"1 mg/kg p.o. TID x 21 days, day 46 (dosing-free regrowth)",2017 ± 443 mm^3
same,Tumor volume,"1 mg/kg p.o. TID x 21 days, day 49 (dosing-free regrowth)",2117 ± 505 mm^3
same,Tumor volume,"1 mg/kg p.o. TID x 21 days, day 53 (dosing-free regrowth)",2166 ± 495 mm^3
same,Tumor volume,"1 mg/kg p.o. TID x 21 days, day 56 (dosing-free regrowth)",2162 ± 633 mm^3
same,Tumor Size on PG-D21 (Mean ± SEM),1 mg/kg p.o. TID × 21 days,138 ± 22 mm^3
same,T/C,1 mg/kg p.o. TID × 21 days,7.3%
same,TGI,1 mg/kg p.o. TID × 21 days,104.9%
same,Tumor volume,"1.5 mg/kg p.o. BID x 21 days, day 0",220 ± 15 mm^3
same,Tumor volume,"1.5 mg/kg p.o. BID x 21 days, day 4",245 ± 18 mm^3
same,Tumor volume,"1.5 mg/kg p.o. BID x 21 days, day 7",213 ± 17 mm^3
same,Tumor volume,"1.5 mg/kg p.o. BID x 21 days, day 11",180 ± 13 mm^3
same,Tumor volume,"1.5 mg/kg p.o. BID x 21 days, day 14",159 ± 13 mm^3
same,Tumor volume,"1.5 mg/kg p.o. BID x 21 days, day 18",166 ± 14 mm^3
same,Tumor volume,"1.5 mg/kg p.o. BID x 21 days, day 21",208 ± 21 mm^3
same,Tumor volume,"1.5 mg/kg p.o. BID x 21 days, day 25 (dosing-free regrowth)",476 ± 63 mm^3
same,Tumor volume,"1.5 mg/kg p.o. BID x 21 days, day 28 (dosing-free regrowth)",773 ± 76 mm^3
same,Tumor volume,"1.5 mg/kg p.o. BID x 21 days, day 32 (dosing-free regrowth)",946 ± 93 mm^3
